Holding throughout (assay): NCI-60 cell line screen, 48 h
The test system of assay [1] is RXF 393 renal.
Assay [2] relates to MALME-3M melanoma.
For assay [3], the system named is NCI-H226 lung.
The test system of assay [4] is HCT-116 colon.
The subject of assay [5] is KM12 colon.
For assay [6], the system named is RPMI-8226 leukemia.
Assay [7] deals with HS 578T breast.
Assay [8] relates to SK-MEL-5 melanoma.
Assay [9] relates to CCRF-CEM leukemia.
The test system of assay [10] is UACC-62 melanoma.

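Five concentrations, 48 hours, 96-well plates. GI50 is the concentration that inhibits growth by half. The concentration for full growth arrest is given as TGI.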

Drawing on PubChem BioAssay (NCI), this text covers GI50 and TGI for 14 compounds.

`COc1ccc(C=C2C(=O)NC(=O)NC2=O)cc1OCc1ccccc1`: the GI50 in assay [1] was 12 µg/mL; in assay [2], 54.5 µg/mL; in assay [3] it was 49.1 µg/mL; in assay [4], 40.5 µg/mL; in assay [5], 33 µg/mL; in [6], 17.8 µg/mL. Besides, the GI50 in assay [7] is 27.1 µg/mL; in assay [8] it was 49 µg/mL. This compound also registered a TGI in [6] of 48.8 µg/mL.
`CNc1ncc2cc(Oc3ccc(F)cc3F)c(=O)n(C)c2n1`: the GI50 in assay [1] is more than 19.3 µM; in assay [2], more than 25 µM; in [3], more than 25 µM; in assay [4], more than 25 µM; in assay [9], more than 25 µM; in [5], more than 25 µM. Besides, the GI50 in assay [6], in [10], in assay [7] and in assay [8] was more than 25 µM each time. The TGI in [1], in assay [2], in assay [3], in assay [4], in assay [9] and in [5] was more than 25 µM each time. The TGI in assay [6], in [10], in assay [7] and in assay [8] was more than 25 µM in each case.
Consider `CCC(=O)c1c(C(F)(F)F)n([O-])c2ccccc2[n+]1=O`, for which the GI50 was 1.67 µM in assay [1]; 1.69 µM in assay [2]; 2.09 µM in assay [3]; 1.56 µM in assay [4]; 0.621 µM in assay [9]; 1.86 µM in assay [5]. In addition, the GI50 is 0.694 µM in [6], 1.65 µM in assay [10], 3.17 µM in assay [7] and 0.961 µM in [8]. Besides, the TGI in assay [1] is 10.2 µM; in assay [2] it was 6.16 µM; in assay [3] it was 9.06 µM; in [4], 8.83 µM; in assay [9] it was 10.5 µM; in assay [5] it was 5.86 µM. Also, the TGI in assay [6] worked out at 3.69 µM; in [10], 4.64 µM; in assay [7], 30.5 µM; in [8], 2.64 µM.
Consider `O=C(CN1C(=O)S/C(=C\C(Cl)=C\c2ccccc2)C1=O)NCCCn1ccnc1`, for which the GI50 in [1] is 1.83 µM; in [2], 1.82 µM; in assay [3], 2.16 µM; in assay [4], 1.53 µM; in [5] it was 1.95 µM; in assay [6], 1.78 µM. Further, the results for the GI50 in assay [10], in assay [7] and in assay [8] were 1.67 µM, 2.4 µM and 1.68 µM, respectively. Further, the TGI was determined as 3.68 µM in assay [1]; 4.9 µM in assay [2]; 5.19 µM in [3]; 3.14 µM in [4]; 4.22 µM in [5]; 6.74 µM in assay [6]. Besides, the TGI in [10] was determined as 3.73 µM; in [7], 7.35 µM; in assay [8] it was 3.06 µM.
For the compound `CCCC(CCC)C(=O)OCC1(CO)C/C(=C\c2ccc(C(F)(F)F)cc2)C(=O)O1` (centres undefined), the GI50 in assay [1] was 16.6 µM; in assay [2] it was 16.4 µM; in assay [3], 14.1 µM; in assay [4], 12.6 µM; in assay [5], 13.7 µM; in assay [6], 10.7 µM. Further, the figures for the GI50 in assay [10], in assay [7] and in [8] were 11 µM, 12.1 µM and 0.948 µM, respectively. Further, the TGI in [1] was 37.8 µM; in [2], 31.7 µM; in assay [3], 33.1 µM; in [4], 25.6 µM; in assay [5], 28.6 µM; in assay [6], 26.9 µM. Besides, the TGI in assay [10] was 27.1 µM; in [7] it was 30 µM; in [8], 19.6 µM.
For `Cc1ccccc1NC(=O)c1cc2ccccc2cc1O`, the GI50 was 2.78 µM in [1]; 1.98 µM in [2]; 3.59 µM in [3]; 3.45 µM in assay [4]; 3.36 µM in [5]; 2.83 µM in [6]. Moreover, the values for the GI50 in [10], in assay [7] and in assay [8] were 3.48 µM, 3.12 µM and 2.38 µM, respectively. The TGI in [1] is 7.23 µM; in assay [2] it was 7.29 µM; in assay [3], more than 100 µM; in [4] it was 15.1 µM; in [5], more than 100 µM; in [6] it was 8.9 µM. Further, the TGI was more than 100 µM in assay [10], 8.38 µM in assay [7] and 5.58 µM in [8].
Take `Cc1cn(Cc2ccccc2CCl)c(=O)n(Cc2ccccc2CCl)c1=O`: the GI50 in [1] was 1.57 µM; in assay [2] it was 2.03 µM; in assay [4], 1.55 µM; in assay [9], 1.93 µM; in assay [5], 1.99 µM; in [6] it was 1.93 µM. The figures for the GI50 in [10], in assay [7] and in assay [8] were 1.67 µM, 2.65 µM and 1.56 µM, respectively. Moreover, the TGI in assay [1] came to 3.22 µM; in [2], 4.02 µM; in assay [4], 3.18 µM; in [9], 5.5 µM; in [5], 4.48 µM; in assay [6], 6.36 µM. Moreover, the TGI is 3.16 µM in assay [10], 15.1 µM in [7] and 2.93 µM in [8].
For the compound `Cc1ccc([N+](=O)[O-])c2c(NCCC[N+](C)(C)[O-])ccnc12`, the TGI in [1], in assay [2], in assay [3], in assay [4], in [9] and in assay [5] was more than 100 µM throughout. Further, the TGI is more than 100 µM in [6], more than 100 µM in assay [7] and 24.6 µM in assay [8].
`COC1OC(C(C)O)C2OC(C)(C)OC12` (centres undefined): the TGI in [3], in assay [4], in [9], in assay [5], in assay [6] and in [10] was more than 100 µM in each case. Also, the TGI in assay [7] and in assay [8] was more than 100 µM each time.
Regarding `CC(C)=CCc1cc(C2COc3cc4c(c(O)c3C2=O)C=CC(C)(C)O4)c(O)cc1O` (centres undefined), the TGI in assay [1] came to 20.6 µM; in [2] it was 28.3 µM; in [4], 54.5 µM; in assay [9], 28.7 µM; in assay [5], 32.7 µM; in assay [6] it was 24.4 µM. Also, the TGI was 32.9 µM in assay [10], 39.9 µM in [7] and 25 µM in [8].
`COc1ccc(OC)c(/C=N/N=C2\C(=O)Nc3c(Cl)cc(Cl)cc32)c1`: the TGI in assay [1], in [2], in assay [3], in assay [4], in [9] and in assay [5] was more than 100 µM in each case. Besides, the TGI in [10] is more than 100 µM; in assay [7], 83.5 µM; in [8], more than 100 µM.
For `CCOC(=O)/C=C1\Oc2ccccc2C1(C)O` (centres undefined), the TGI in assay [1], in assay [2], in [3], in assay [4], in assay [9] and in [5] was more than 100 µM in each case. Besides, the TGI in [6], in assay [10] and in assay [8] was more than 100 µM each time.
For the compound `c1ccc(/C(=N\Nc2ccc3ccccc3n2)c2ccccn2)cc1`, the GI50 is 0.546 µM in assay [2]; 0.534 µM in assay [3]; 0.436 µM in assay [4]; 0.298 µM in assay [9]; 0.989 µM in [5]; 0.503 µM in assay [6]. The results for the GI50 in [10], in assay [7] and in assay [8] were 0.549 µM, 4.42 µM and 0.487 µM, respectively. Besides, the TGI in assay [2] worked out at 5.76 µM; in [3], 5.16 µM; in assay [4], 5.62 µM; in [9], 1.47 µM; in [5], 13.5 µM; in assay [6], 3.68 µM. Besides, the TGI in assay [10] came to 7.41 µM; in [7], 41.6 µM; in [8] it was 2.92 µM.
As for `COc1ccc2c(c1OC)C(=O)O[C@@H]2[C@H]1c2c(c(Br)c3c(c2OC)OCO3)CCN1C`, the GI50 in [1] was 20.3 µM; in [3] it was 44.1 µM; in [4] it was 4.69 µM; in assay [5] it was 4.49 µM; in assay [6], 6.97 µM; in [10] it was 4.31 µM. Further, the figures for the GI50 in assay [7] and in [8] were 31.4 µM and 4.12 µM, respectively. Moreover, the TGI in assay [1], in [3], in assay [4], in assay [5], in [6] and in assay [10] was more than 100 µM in each case. The TGI in assay [7] and in [8] was more than 100 µM in each case.
